What was measured:
[1] = system: mitochondrial membrane potential; assay type: cell-based
Experimental: Various examples describing various real-life responses obtained using the mitochondrial marker TMRM will now be given. In actual images of cells stained with TMRM, the level of fluorescence intensity is related to the mitochondrial membrane potential, loss of which can be an indicator of cytotoxicity.
(§1) However, in order to verify further the robustness of the developed methods, these algorithms were tested on FOV-averaged data generated from a real toxicity assay. The cell-based experiment involved the influence of several drugs and the applications of two fluorescent markers during a 5-hour time course. The general background for such an experimental study is outlined in the article by O'Brien et al.
The second example analyzed a mitochondrial marker (TMRM) response. […] It was assumed that all cells started reacting immediately after drug addition. The reaction of a mitochondrial potential to a perturbation (i.e. a drug) is considered to be potentially very diverse.
The expression defined in Equation 16 above is very flexible, and uses as a fitting parameter the single time scale (“τ”), amplitude (“range”) and another parameter (“α”) for controlling response nonlinearity.
The TMRM response was taken for two values of drug concentration, denoted “high” and “low”.
Data fitting was performed using the technique discussed in relation to Equation 16, above. […]

[2] = system: cytoplasmatic membrane integrity; assay type: cell-based
Experimental: as §1
The first example analyzed the cytoplasmatic membrane integrity, as indicated by the TOTO-3 marker. TOTO-3 stains cell nuclei only after cell plasma membrane disruption. The response1(t) generated by disruption to the membrane is therefore a curve representing the increase of cell nuclei intensity in TOTO-3 channel. This intensity was measured by a microscopy HTS system. However, the exact moment when a particular membrane became disrupted was unpredictable.
The analysis therefore used stochastic fitting involving a single time parameter (the width of the box-shaped distribution of starting times of the response).
FIG. 11 represents the raw TOTO-3 response. The TOTO-3 response was taken for two values of drug concentration, denoted “high” and “low”.
Data fitting was performed using a response1(t) function having an exponential rising shape. τ was equal to 15 minutes, A=0.5 and B=1.48. The starting time distribution was box shaped with tmin=0 and widtht−fitted.

Row | Compound | effect on mitochondrial function (TMRM response) [1] | TOTO-3 response speed (characteristic time) relative to controls [2]
1 | Cc1oncc1C(=O)Nc1ccc(C(F)(F)F)cc1 [leflunomide] | no effect | 
2 | CC/C(=C(\c1ccccc1)c1ccc(OCCN(C)C)cc1)c1ccccc1 [tamoxifen] |  | responding faster than controls
3 | O=C1CN(/N=C/c2ccc(-c3ccc([N+](=O)[O-])cc3)o2)C(O)=N1 [dantrolene] | no effect | 
4 | COc1ccc(CCN2CCC(Nc3nc4ccccc4n3Cc3ccc(F)cc3)CC2)cc1 [astemizole] |  | responding faster than controls
5 | CC[C@H](C)C(=O)O[C@H]1C[C@@H](C)C=C2C=C[C@H](C)[C@H](CC[C@@H]3C[C@@H](O)CC(=O)O3)[C@H]21 [lovastatin] |  | responding faster than controls
